According to article PMC5693757 (Journal of molecular biology, 2017):
One block for each compound: values may come before it.

Assays:
Type in all cases: binding
[1] = molecular target: T1, ARL2 (Homo sapiens, UniProt P36404); assay: radioligand nitrocellulose filter trapping
[2] = molecular target: T1, ARL2; assay: HDX-MS
[3] = molecular target: T1, ARL2; assay: real-time mant fluorescence association/dissociation kinetics

T1 sequence (P36404 2-184): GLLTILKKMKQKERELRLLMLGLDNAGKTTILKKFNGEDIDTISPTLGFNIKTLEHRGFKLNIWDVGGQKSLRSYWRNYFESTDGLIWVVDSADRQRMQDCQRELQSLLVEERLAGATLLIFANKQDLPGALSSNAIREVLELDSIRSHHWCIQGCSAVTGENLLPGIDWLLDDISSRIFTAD

Compound: Nc1nc2c(ncn2[C@@H]2O[C@H](COP(=O)(O)OP(=O)(O)OP(O)(O)=S)[C@@H](O)[C@H]2O)c(=O)[nH]1 [GTPγS]
radioligand nitrocellulose filter trapping; HDX-MS [1]: Human ARL2 monomer, exogenously expressed and purified from E. coli or HEK cells, bound GTPγS to similar stoichiometries

Compound: Nc1nc2c(ncn2[C@@H]2O[C@H](COP(=O)(O)OP(=O)(O)O)[C@@H](O)[C@H]2O)c(=O)[nH]1 [GDP]
HDX-MS [2]: addition of GDP to ARL2 (apo→GDP) resulted in large protection to deuterium uptake at the conserved nucleotide-binding motifs G1 and G4

Kd [3]: 0.59 µM
Compound: mant-Gpp(NH)p
